The values below are quoted from earlier work in US7053240B2, “Process for synthesizing disulfides” (BioNumerik Pharmaceuticals, Inc., priority 2003, dated 2006).

The subject of data set [1] is mice. The following applies: intravenously, doses higher than 3750 mg/kg.
The subject of data set [2] is dogs. To be noted: intravenously, doses higher than 3750 mg/kg.
For data set [3] the following is noted: accepted value.

Molecules are shown by their SMILES.

As for `O=S(=O)(O)CCSSCCS(=O)(=O)O` [Dimesna, disodium 2,2′-dithiobis ethane sulfonate], the adverse effects entry in data set [1] and in data set [2] was “no adverse effects” throughout.

`[Cl-].[Na+]` [common table salt]: the “oral LD50” value in data set [3] was 3750 mg/kg.
